According to US20070190651A1, “Myogenic Development and Protection of Stem Cells Against Inflammation and Apoptosis By Statins and Isoprenoid Pathway Inhibitors” (Board of Regents of the University of Texas System, priority 2006, published 2007):
Entries after “also recorded” stand apart in the source; their conditions may differ. Residues, ends and D or L forms follow the SMILES beside them. *: point of attachment. Cbz = O=C(OCc1ccccc1)*

Legend:
iNOS [1] = test: Nitrite production (Griess reaction) in H9c2 cardiac myoblasts; type: cell-based, rat; conditions: for effect on nitrite production in cells treated with simvastatin plus IL-1α: added to simvastatin + IL-1α 20 ng/mL
Protocol: Cell cultures. H9c2 cells purchased from American Type Culture Collection (ATCC, Rockville, Md.) are spontaneously immortalized ventricular myoblasts from the rat embryo, with preservation of several electrical and biochemical characteristics found in adult cardiomyocytes. […] After certain time intervals, 100 μL/well culture media were collected for determination of nitrite production. Assay for NO Production. The activity of iNOS was determined in the culture medium by assaying nitrites, taken as an index of NO production, using the Griess reagent (1% sulphanilic acid and 0.1% N-[1-naphtyl] ethylenediamine-HCl in 5% phosphoric acid) as reported previously (4,18,19). Equal volumes of medium and Griess reagent were mixed, and the purple products quantified spectrophotometrically at 550 nm. Nitrite concentrations were determined from a linear standard curve constructed with known concentrations of sodium nitrite (0 to 40 μmol/L nitrite). Nitrite Assays. Nitrite, a stable end-product of nitric oxide, was measured by using Griess reagent (1% sulphanilic acid and 0.1% N-[1-naphtyl] ethylenediamine-HCl in 5% phosphoric acid). Equal volumes of medium and Griess reagent were mixed, and the resulting purple product quantified by spectrophotometric assay at 550 nm. Nitrite concentrations were calculated from a linear standard curve constructed with known concentrations of sodium nitrite (0-14 μmol/L nitrite) (19).

Rho kinase = conditions: cited from earlier work
iNOS [2] = test: Immunoblotting for iNOS protein in cytokine-stimulated H9c2 cardiac myoblasts; type: cell-based, rat; conditions: for effect on simvastatin inhibition of cytokine-induced iNOS protein expression: added to simvastatin + IL-1α or TNF-α
Protocol: Cell cultures. H9c2 cells purchased from American Type Culture Collection (ATCC, Rockville, Md.) are spontaneously immortalized ventricular myoblasts from the rat embryo, with preservation of several electrical and biochemical characteristics found in adult cardiomyocytes. They were cultured in DMEM medium (ATCC) supplemented with 10% heat-inactivated fetal bovine serum (FBS) in 95% air and 5% CO2 at 37° C. […] After certain time intervals, 100 μL/well culture media were collected for determination of nitrite production.
Immunoblotting. Total proteins were isolated from rat cardiac myoblasts (H9c2 cells) or embryonic stem cells in an ice-cold lysis buffer containing 10 mmol/L Tris (tris(hydroxymethyl)aminomethane) (pH 7.4), 1% sodium dodecyl sulfate (SDS) and 1× protease inhibitor (1 mmol/L sodium orthovanadate). Proteins (15 μg/lane) were separated under the reducing conditions (125 mM Tris pH 6.8, 4% SDS, 10% glycerol, 0.006% bromophenol blue, 2% β-mercaptoethanol) by electrophoresis onto 5-10% SDS-polyacrylamide gel and electro-blotted to nitrocellulose membranes (Osmonics, Westborough, Mass.). The membranes were reversibly stained with Ponceau red (Sigma) to verify equal protein loading and/or transfer. After blocking in Tris-buffered saline (0.2 M Tris and 8% NaCl) containing 5% non-fat powdered milk and 0.1% Tween 20 for 1 hour at room temperature, the membranes were incubated overnight at 4° C. with following primary antibodies to (a) iNOS (Transduction Laboratories, Lexington, Ky.; BD Biosciences); (b) NF-κB p65/rel (Santa Cruz Biotechnologies, Santa Cruz, Calif.); (c) ser^32-phosphorylated inhibitor IκBα (Santa Cruz); (d) Bad (BD Biosciences, San Jose, Calif.); (e) Bcl-xL (BD Biosciences); (f) proliferating cell nuclear antigen (PCNA; BC Biosciences); (g) ryanodine receptor (Santa Cruze Biotechnology, Inc., Santa Cruz, Calif.); (h) α-sarcomeric actinin (Sigma); (i) myocardin A (developed by immunizing rabbits with a synthetic myocardin A peptide); (j) Tie-2 (Santa Cruz); (k) manganese superoxide dismutase (Santa Cruz); and (1) β-tubulin (Sigma). The blots were incubated with horseradish peroxidase-coupled secondary antibodies, washed and developed by using a SuperSignal West Pico Chemiluminescent Substrate Kit (Pierce, Rockford, Ill.). Intensity of each immunoreactive protein band was quantified by densitometric analysis. Cytokine-stimulated RAW 264.7 cells (Transduction Laboratories, Lexington, Ky.) were used as positive controls.

IκBα = test: Immunoblotting for ser32 phosphorylated IκBα in H9c2 cells; type: cell-based, rat; conditions: 24 h
Protocol: Immunoreactive bands were quantified by densitometry (Panel B).
Immunoblotting. Total proteins were isolated from rat cardiac myoblasts (H9c2 cells) or embryonic stem cells in an ice-cold lysis buffer containing 10 mmol/L Tris (tris(hydroxymethyl)aminomethane) (pH 7.4), 1% sodium dodecyl sulfate (SDS) and 1× protease inhibitor (1 mmol/L sodium orthovanadate). Proteins (15 μg/lane) were separated under the reducing conditions (125 mM Tris pH 6.8, 4% SDS, 10% glycerol, 0.006% bromophenol blue, 2% β-mercaptoethanol) by electrophoresis onto 5-10% SDS-polyacrylamide gel and electro-blotted to nitrocellulose membranes (Osmonics, Westborough, Mass.). The membranes were reversibly stained with Ponceau red (Sigma) to verify equal protein loading and/or transfer. […] Intensity of each immunoreactive protein band was quantified by densitometric analysis. […]

[3] = tested on: murine embryonic stem cells; type: cell-based; conditions: day 12
Protocol: At day 12, the number of contracting EB outgrowths (Panel A) and extension of beating area (Panel B) were detrmined by morphometry. The results were plotted as percentages of the total EBs counted in each well and shown as the mean ±SD for each of the 3 separate experiments. *, P<0.05 vs untreated control; #, P<0.05 vs simvastatin-treated control.
The murine ESC (mESC) line CCE was obtained from American Type Culture Collection (ATCC, Rockville, Md.). Murine ESCs were cultured without feeder cells in Dulbecco's modified Eagle's medium supplemented with 10% ESC-qualified Fetal Bovine Serum (FBS) (Stem Cell Technologies, Vancouver, Va.), pyruvate (Stem Cell Technologies, stock solution diluted 1:100), 2 mM L-glutamine, nonessential amino acids (Stem Cell Technologies, stock solution diluted 1:100), 100 IU/mL penicillin, 0.1 mg/mL streptomycin, and leukemia inhibitory factor (LIF) (Stem Cell Technologies). To induce differentiation, EBs were formed from undifferentiated mESCs in hanging drops of 400 cells in 20 μL of medium without LIF. After 5 days in suspension, EBs were plated on gelatin-coated dishes and cultured in cardiomyocyte-differentiation medium (Iscove's modified Eagle's medium, supplemented with 15% FBS, 2 mM L-glutamine, 5×10^−5 M β-mercaptoethanol, nonessential aminoacids, 100 IU/mL penicillin, 0.1 mg/mL streptomycin).
Statin Treatment. […] The inhibition of endogenous cholesterol synthesis was the mechanism used for analyzing the effect of endogenous cholesterol depletion on EB differentiation. By days 8 through 12 after plating, spontaneously contracting cell clusters could be observed within the EB outgrowths. Culture media from both simvastatin-treated and untreated cells were changed each day after day 3.
Spontaneous cardiac differentiation of mouse embryonic stem cells (mESCs) was assessed in vitro as the presence of rhythmically beating […] (EB) outgrowth. […] Thereafter, EB outgrowths were counted periodically under the inverted microscope equipped with a digital video camera, to determine whether or not they contained beating foci at different time points (days 3, 5, 7, 10, 12, and 14). At approximately day 7, contracting areas began to appear. […] Concomitant with the increased number of beating EBs, the size of the beating area for simvastatin-treated EBs increased 2-fold (evaluated at day 12) compared to that of untreated control EBs, a significant augmentation (p<0.05) (FIG. 22B).

[4] = tested on: mouse peritoneal macrophages; test: TUNEL staining of acLDL-loaded mouse peritoneal macrophages; type: cell-based; conditions: for number of TUNEL positive cells: acLDL-preloaded macrophages, agent alone, over incubation time
Protocol: FIG. 15 is a graph showing TUNEL staining of mouse peritoneal macrophages. Macrophages loaded with acLDL were treated with CP-113,818 (▪), CP-113,818 plus U18666A (♦), or U18666A in medium containing 0.2% BSA (□). After treatment the cells were fixed and nuclear DNA fragments were labeled using a fluorescent TUNEL assay.
It was tested whether cholesterol accumulation can induce apoptosis in cells treated with the acyl coenzyme-A:cholesterol acyltransferase (ACAT) inhibitor CP-113,818. In situ labeling of DNA fragments were analyzed in murine macrophages treated with the inhibitors using the TUNEL technique. […] Few TUNEL positive cells were detected in untreated control and in cultures treated with CP-113,818 plus U18666A for 24 h. Thus, inhibition of cholesterol transport with U18666A blocked the apoptotic effect of the ACAT inhibitor.

hESC-derived EB = test: hESC embryoid body formation with proteasomal inhibitor; type: cell-based, human; conditions: MG132 at 100 nm in hanging drops, then regular culture 1-2 days
Protocol: FIG. 13 is a pair of photomicrographs showing hESC-derived EB after treatment with MG132 for 2 days. a, untreated and b, treated.
To determine whether protein ubiquitination has any impact on EB formation, hESCs were cultured in hanging-drops with the proteasomal inhibitor MG132 at 100 nm, and then plated in regular culture for 1-2 days.

β-adrenergic receptors = test: Edge-motion detection of mESC-derived contractile myogenic cells; type: cell-based, murine
Protocol: FIG. 11 is a series of graphs showing edge-motion detection of mESC-derived contractile myogenic cells untreated (upper) or treated with isoproterenol (10 ng/ml) in the absence (middle) or presence (lower) of propanolol (25 ng/ml).
hESC grown in DMEM media with 10% fetal bovin serum and a group of growth factors were induced to differentiate in a hang-drop 3D cell culture system. hESCs from two (H1 or H9) lines were cultured with a mouse fetal fibroblast feeder layer. After forming EBs in the hanging-drop 3D system they were replated in 12-well plates. […] Surrounding the beating colonies, the cells developed a blood vessel-like structure (FIG. 10). Using the edge-motion detection technique, a single beating myogenic cell within the developing EBs was recorded. This provides a functional marker showing the differentiational potential in cardiomyogenesis.

NF-κB p65/RelA = test: Immunoblotting for p65/RelA subunit of NF-κB, total cellular or nuclear proteins of H9c2 cells; type: cell-based, rat; conditions: Y-27632 10^−4 mol/L
[5] = animals; cited from earlier work

CC(C)=CCC/C(C)=C/CC/C(C)=C/COP(=O)(O)OP(=O)(O)O [FPP, farnesylpyrophosphate]
effect on nitrite production in cells treated with simvastatin plus IL-1α (iNOS [1]): did not alter nitrite accumulation

CC(C)c1c(C(=O)Nc2ccccc2)c(-c2ccccc2)c(-c2ccc(F)cc2)n1CC[C@@H](O)C[C@@H](O)CC(=O)O [atorvastatin]
Rho kinase activity (Rho kinase): inhibit the Rho kinase activity

CCC(C)(C)C(=O)O[C@H]1C[C@@H](C)C=C2C=C[C@H](C)[C@H](CC[C@@H]3C[C@@H](O)CC(=O)O3)[C@H]21 [simvastatin]
lowest concentration achieving the inhibitory effect on iNOS expression (iNOS [2]; H9c2, cytokine-stimulated): 10^−8 mol/L
concentration giving the highest levels of phosphorylated IκBα (IκBα): 10^−7 mol/L
size of the beating area, increase compared to untreated control EBs [3]: 2 fold
percentage of beating EB outgrowths ([3]; simvastatin, untreated control 18±0.1%): 42±0.1%

CC(C)CCC[C@@H](C)[C@H]1CC[C@H]2[C@@H]3CC=C4C[C@@H](O)CC[C@]4(C)[C@H]3CC[C@]12C [cholesterol]
effect of exogenous cholesterol on the statin effect on iNOS expression (iNOS [2]): does not prevent the statin effect

CCN(CC)CCO[C@H]1CC[C@@]2(C)C(=CC[C@@H]3[C@@H]2CC[C@]2(C)C(=O)CC[C@@H]32)C1 [U18666A]
number of TUNEL positive cells with CP-113,818 co-treatment ([4]; U18666A simultaneously with CP-113,818): greatly reduced
number of TUNEL positive cells [4]: no effect on the number of cells bearing this marker of apoptosis

CC(C)C[C@@H](C=O)NC(=O)[C@H](CC(C)C)NC(=O)[C@H](CC(C)C)NC(=O)OCc1ccccc1 [MG132] (Cbz-Leu-Leu-Leu-aldehyde)
EB morphology / cell differentiation (hESC-derived EB): spread out and surrounded by differentiated cells
EB morphology / cell differentiation (hESC-derived EB; listed as MG-132): helped the cell differentiation

CC(C)NCC(O)COc1cccc2ccccc12 (stereo not drawn) [propanolol]
effect on isoproterenol stimulation of contraction (β-adrenergic receptors; propanolol 25 ng/ml with isoproterenol 10 ng/ml): almost abolished the isoproterenol stimulatory effect

C[C@@H](N)[C@H]1CC[C@H](C(=O)Nc2ccncc2)CC1 [Y-27632]
effect on simvastatin inhibition of cytokine-induced iNOS protein expression (iNOS [2]; H9c2): almost abolished the inhibitory effect of simvastatin
cytokine-induced iNOS protein expression in the absence of simvastatin (iNOS [2]; H9c2, cytokine-stimulated, no simvastatin): did not alter cytokine-induced iNOS protein expression
nitrite production (iNOS activity) in cytokine-treated cells (iNOS [1]; IL-1α, Y-27632 10^−6 to 10^−5 mol/L, no simvastatin): enhances NO production; also recorded: dose-dependently increased the iNOS activity
effect on nitrite production in cells treated with simvastatin plus IL-1α (iNOS [1]): reversal of the statin-induced nitrite reduction; also recorded: reversed the statin inhibitory effect on iNOS activities
nuclear NF-κB (p65) translocation in presence of IL-1α (NF-κB p65/RelA): no major effect on the nuclear NF-κB translocation

CC(C)NCC(O)c1ccc(O)c(O)c1 (stereo not drawn) [isoproterenol]
contraction of beating myocytes (β-adrenergic receptors; mESC-derived EBs, isoproterenol 10 ng/ml): marked increased contraction in both frequency and ampltitute

Clc1ccccc1CNCC1CCC(CNCc2ccccc2Cl)CC1 (stereo not drawn) [AY 9944]
teratogenic effect [5]: holoprosencephalic brain anomalies

CCN(CC)CCOc1ccc(C(O)(Cc2ccc(Cl)cc2)c2ccc(C)cc2)cc1 (stereo not drawn) [triparanol]
teratogenic effect [5]: holoprosencephalic brain anomalies

O=C(O)c1ccc(CCN2CCN(C/C=C/c3ccc(Cl)cc3)CC2)cc1 [BM 15766]
teratogenic effect [5]: holoprosencephalic brain anomalies

CC(C)=CCC/C(C)=C/CC/C(C)=C/CC/C(C)=C/COP(=O)(O)OP(=O)(O)O [GGPP, geranylgeranylpyrophosphate]
effect on simvastatin inhibition of cytokine-induced iNOS protein expression (iNOS [2]; H9c2): reversed the simvastatin-mediated suppression; also recorded: prevented the inhibitory effect of simvastatin; also recorded: attenuates the simvastatin inhibitory effect
effect on nitrite production in cells treated with simvastatin plus IL-1α (iNOS [1]): attenuates the simvastatin inhibitory effect; also recorded: reversed the simvastatin-mediated suppression

CCCCCCCC[C@H](SCCCCCC)C(=O)Nc1c(SC)cc(C)nc1SC [CP-113,818]
number of TUNEL positive cells [4]: increase in the number of TUNEL positive cells
